From paper PMC9465641 (Frontiers in Pharmacology, 2022)
Counter-ions that a name gives are not always drawn. Like-named read-outs stand apart in the source and are kept apart here. Positions of bridges follow the written chain, without caps; N, C: chain ends. Non-standard residues stand in square brackets, D forms with d. Residues, ends and D or L forms follow the SMILES beside them. *: point of attachment. X1 = CC[C@H](C)CCCCC(=O)*; Dab = NCC[C@H](N)C(=O)O

Experiments:
[1] = Urinary excretion and renal clearance of colistin sulfate; format: in vivo, human
Protocol: Colistin sulfate treatment was at the discretion of their medical teams. […] Colistin sulfate was routinely subjected to therapeutic drug monitoring (TDM) in our hospital. […] Other blood samples were collected randomly from residual blood of blood gas analysis or routine blood tests. In addition, urine samples from 6 patients with catheters in the intensive care unit were collected and recorded across a dosage interval (0–12 h after dosing) after 72 h of therapy. All samples were centrifuged for 10 min (4,000 ×g), and the supernatant was immediately collected and stored at −80°C pending analysis.
Colistin A and colistin B in plasma and urinary samples were quantified using a validated ultraperformance liquid chromatography tandem mass spectrometry (LC-MS/MS) assay. Briefly, samples were pretreated with acetonitrile, and 1 μL supernatant was injected into the LC-MS/MS instrument for analysis. A Waters XBridge BEH HILIC (4.6 × 150 mm, 2.5 μm) column was used. The mobile phase, consisting of eluents A (0.1% formic acid in water, vol/vol) and B (methanol), was delivered at a flow of 0.5 ml/min. Analysis of independently prepared quality control samples indicated good reproducibility (coefficients of variation ≤12.57%), and accuracy ranged from 88.52% to 109.43%. The limit of quantification was 0.034 mg/L for colistin A and 0.059 mg/L for colistin B. Since colistin A and B had similar structures, molecular weights and pharmacokinetic characteristics, the concentrations of colistin A and B were added together and referred to as colistin ([Li et al., 2003]; [Couet et al., 2011]).
The renal clearance (CLR) of colistin was calculated as the ratio of the amount recovered in urine to the area under the plasma concentration-time curve (AUC) during the same period ([Sandri et al., 2013]). The percentage of colistin sulfate excreted in urine was defined as the amount of colistin recovered in urine divided by the dose administered. The fraction of renal clearance was estimated by CLR divided by total body clearance (CL) ([Li et al., 2003]).

[2] = tested on: carbapenem-resistant gram-negative bacteria; test: Clinical outcome, microbiological outcome and nephrotoxicity in patients; format: in vivo, human
Protocol: The primary endpoint was the clinical outcome, and the secondary endpoint was the microbiological outcome. Clinical outcomes were defined as valid, if signs and symptoms of infection disappeared or improved on Day 7 after the initiation of colistin therapy; or invalid, defined as any of the following criteria: death related to infection, hemodynamic instability, deteriorated Sequential Organ Failure Assessment (SOFA) score, constant fever >38.5°C, repeat isolation of bacterial phenotypically identical to the index isolate. […] Colistin-induced nephrotoxicity was defined using RIFLE (risk, injury, failure, loss of kidney function, and end-stage renal disease) criteria during treatment ([Bellomo et al., 2004]). […]

[3] = Individual drug exposure at steady state (PK/PD analysis); format: in vivo, human
[4] = tested on: A. baumannii; test: MIC for colistin of causative pathogen; format: cell-based; conditions: AB
[5] = set-up: method as in Li et al., 2003; conditions: Sprague-Dawley rats; ref Li et al., 2003; cited from earlier work
[6] = set-up: method as in Al-Khayyat and Aronson, 1973; conditions: dogs; ref Al-Khayyat and Aronson, 1973; cited from earlier work
[7] = patient 1, Pulmonary, PA+AB, MIC 0.5 mg/L, 1.0 MU q12h, with MER+LIN
[8] = patient 2, Pulmonary, Bloodstream, Urinary tract, KP, MIC 0.5 mg/L, 1.0 MU q12h, with MER
[9] = patient 3, Pulmonary, AB, MIC 0.5 mg/L, 0.75 MU q12h + inhaled 0.25MU q12h, with MER
[10] = patient 6, Pulmonary, Bloodstream, KP, MIC 0.5 mg/L, 1.0 MU q12h + inhaled 0.25MU q12h, with PIP/TAZ
[11] = patient 7, Pulmonary, KP, MIC 0.5 mg/L, 0.75 MU q12h + inhaled 0.25MU q12h, with MER, PIP/TAZ
[12] = patient 8, Pulmonary, AB, MIC 2 mg/L, 0.75 MU q12h + inhaled 0.25MU q12h, with MER
[13] = patient 9, Pulmonary, AB, MIC 0.5 mg/L, 0.75 MU q12h + inhaled 0.25MU q12h, with MER
[14] = patient 10, Pulmonary, AB, MIC 0.5 mg/L, 0.75 MU q12h + inhaled 0.25MU q12h, with MER+LIN
[15] = patient 11, Bloodstream, AB, MIC 0.5 mg/L, 1.0 MU q12h, with MER+TEI
[16] = patient 12, Bloodstream, Urinary tract, KP, MIC 0.5 mg/L, 0.5 MU q8h, with CEF/AVI
[17] = patient 13, Pulmonary, Bloodstream, KP, MIC 0.5 mg/L, 0.5 MU q8h, with CEF/AVI
[18] = patient 14, Pulmonary, Bloodstream, Abdomen, KP, MIC 0.5 mg/L, 0.5 MU q8h, with CEF/AVI
[19] = patient 15, Abdomen, PA+AB, MIC 1, 2 mg/L, 0.75 MU q8h + inhaled 0.25MU q12h, with MER+CEF/SUL
[20] = patient 16, Pulmonary, AB, MIC 0.5 mg/L, 0.5 MU q8h + inhaled 0.25MU q12h, with MER+CEF/SUL
[21] = patient 18, Pulmonary, AB, MIC 0.5 mg/L, 0.75 MU q12h + inhaled 0.25MU q12h, with MER
[22] = patient 19, Pulmonary, AB, MIC 0.5 mg/L, 0.5 MU q8h, with MER+TEI
[23] = patient 1, 1.0 MU q12h, CrCL 63.93 ml/min
[24] = patient 2, 1.0 MU q12h, CrCL 138.05 ml/min
[25] = patient 3, 0.75 MU q12h + inhaled 0.25MU q12h, CrCL 193.84 ml/min
[26] = patient 6, 1.0 MU q12h + inhaled 0.25MU q12h, CrCL 23.79 ml/min
[27] = patient 7, 0.75 MU q12h + inhaled 0.25MU q12h, CrCL 10.2 ml/min
[28] = patient 8, 0.75 MU q12h + inhaled 0.25MU q12h, CrCL 62.44 ml/min
[29] = patient 9, 0.75 MU q12h + inhaled 0.25MU q12h, CrCL 70.98 ml/min
[30] = patient 10, 0.75 MU q12h + inhaled 0.25MU q12h, CrCL 29.3 ml/min
[31] = patient 11, 1.0 MU q12h, CrCL 26.81 ml/min
[32] = patient 12, 0.5 MU q8h, CrCL 9.7 ml/min
[33] = patient 13, 0.5 MU q8h, CrCL 52.49 ml/min
[34] = patient 14, 0.5 MU q8h, CrCL 93.28 ml/min
[35] = patient 15, 0.75 MU q8h + inhaled 0.25MU q12h, CrCL 41.41 ml/min
[36] = patient 16, 0.5 MU q8h + inhaled 0.25MU q12h, CrCL 45.07 ml/min
[37] = patient 18, 0.75 MU q12h + inhaled 0.25MU q12h, CrCL 101.48 ml/min
[38] = patient 19, 0.5 MU q8h, CrCL 91.55 ml/min

## CC[C@H](C)CCCCC(=O)N[C@@H](CCN)C(=O)N[C@H](C(=O)N[C@@H](CCN)C(=O)N[C@H]1CCNC(=O)[C@H]([C@@H](C)O)NC(=O)[C@H](CCN)NC(=O)[C@H](CCN)NC(=O)[C@H](CC(C)C)NC(=O)[C@@H](CC(C)C)NC(=O)[C@H](CCN)NC1=O)[C@@H](C)O [colistin sulfate] (X1-[Dab]T[Dab][Dab][Dab][dL]L[Dab][Dab]T; lactam 4-C)
[1]; human, iv, six patients, 41 urine samples, 0-12 h dosage interval after 72 h of therapy, median, read-out: percentage of colistin dose excreted in urine, median
  dose excreted: 10.1%
[1]; patient 1, 1.0 MU q12h
  CLR: 0.133 L/h
  CLR/CL: 9.15%
[1]; patient 2, 1.0 MU q12h
  CLR: 0.405 L/h
  CLR/CL: 15.58%
[1]; patient 3, 0.75 MU q12h
  CLR: 0.108 L/h
  CLR/CL: 2.52%
[1]; patient 5, 0.75 MU q12h
  CLR: 0.284 L/h
  CLR/CL: 17.95%
[1]; patient 7, 0.75 MU q12h
  CLR: 0.053 L/h
  CLR/CL: 4.64%
[1]; patient 8, 0.75 MU q12h
  CLR: 0.767 L/h
[1]; six patients, median
  12-hour urinary excretion of colistin, median: 4.149 mg
  CLR as percentage of CL (CLR/CL), median: 12.37%
  renal clearance (CLR), median: 0.209 L/h
[2]; 12 of 16 cases, definitive therapy, Day 7
  successful clinical outcomes: 75%
[2]; 13 of 16 subjects, causative pathogen MIC 0.5–2 mg/L
  microbiological eradication: 81.25%
[2]; during the treatment
  colistin-induced nephrotoxicity (RIFLE criteria): None of the patients experienced colistin-induced nephrotoxicity
[2]; [7]
  Clinical outcomes: Valid
  Microbiological outcomes: clearance
[2]; [8]
  Clinical outcomes: Invalid
  Microbiological outcomes: clearance
[2]; [9]
  Clinical outcomes: Valid
  Microbiological outcomes: clearance
[2]; [10]
  Clinical outcomes: Valid
  Microbiological outcomes: clearance
[2]; [11]
  Clinical outcomes: Valid
  Microbiological outcomes: clearance
[2]; [12]
  Clinical outcomes: Invalid
  Microbiological outcomes: uncleared
[2]; [13]
  Clinical outcomes: Valid
  Microbiological outcomes: clearance
[2]; [14]
  Clinical outcomes: Valid
  Microbiological outcomes: clearance
[2]; [15]
  Clinical outcomes: Valid
  Microbiological outcomes: clearance
[2]; [16]
  Clinical outcomes: Valid
  Microbiological outcomes: clearance
[2]; [17]
  Clinical outcomes: Valid
  Microbiological outcomes: clearance
[2]; [18]
  Clinical outcomes: Valid
  Microbiological outcomes: clearance
[2]; [19]
  Clinical outcomes: Invalid
  Microbiological outcomes: uncleared
[2]; [20]
  Clinical outcomes: Valid
  Microbiological outcomes: clearance
[2]; [21]
  Clinical outcomes: Valid
  Microbiological outcomes: clearance
[2]; [22]
  Clinical outcomes: Invalid
  Microbiological outcomes: uncleared
[3]; [23]
  Css, avg: 1990 ng/mL
  Css, max: 3980 ng/mL
[3]; [24]
  Css, avg: 1170 ng/mL
  Css, max: 2480 ng/mL
[3]; [25]
  Css, avg: 570 ng/mL
  Css, max: 1710 ng/mL
  Css, min: 130 ng/mL
[3]; [26]
  Css, avg: 2430 ng/mL
  Css, max: 3010 ng/mL
  Css, min: 1950 ng/mL
[3]; [27]
  Css, avg: 1590 ng/mL
  Css, max: 2490 ng/mL
  Css, min: 890 ng/mL
[3]; [28]
  Css, avg: 1150 ng/mL
  Css, max: 2100 ng/mL
[3]; [29]
  Css, avg: 2040 ng/mL
  Css, max: 3020 ng/mL
  Css, min: 1400 ng/mL
[3]; [30]
  Css, avg: 1510 ng/mL
  Css, max: 2480 ng/mL
  Css, min: 870 ng/mL
[3]; [31]
  Css, avg: 4400 ng/mL
  Css, max: 5840 ng/mL
[3]; [32]
  Css, avg: 2070 ng/mL
  Css, max: 2670 ng/mL
[3]; [33]
  Css, avg: 1490 ng/mL
  Css, max: 2090 ng/mL
[3]; [34]
  Css, avg: 740 ng/mL
  Css, max: 1340 ng/mL
[3]; [35]
  Css, avg: 2520 ng/mL
  Css, max: 3620 ng/mL
[3]; [36]
  Css, avg: 1580 ng/mL
  Css, max: 2240 ng/mL
[3]; [37]
  Css, avg: 860 ng/mL
  Css, max: 1890 ng/mL
  Css, min: 280 ng/mL
[3]; [38]
  Css, avg: 1330 ng/mL
  Css, max: 1920 ng/mL
  Css, min: 830 ng/mL
[4]; isolate of patient 8
  MIC: 2 µg/mL
[4]; isolate of patient 18
  MIC: 0.5 µg/mL
[4]; isolate of patient 19
  MIC: 0.5 µg/mL
[5]
  dose recovered from urine: 0.18 ± 0.14%
[6]
  dose recovered from urine: 0.13 ± 0.09%
